Source: a melting point compilation (Tetko et al.; mined from patent text by program, amines drawn as free bases though some values may be those of a salt)

Row | melting point [°C] | Compound
1 | 178 | Cc1cc(N2CCN(C)CC2)n2nc(OCCO)c(S(=O)(=O)c3ccccc3)c2n1
2 | 193 to 194 | CCOC(=O)C(=CNc1cnc2ccccc2n1)c1ccccc1
3 | 176 to 178 | NC1CCCN(C(=O)c2ccc(NC(=O)c3ccccc3Cl)cc2)c2ccccc21 (stereo not drawn)
4 | 258 | Oc1noc2ncccc12
5 | 246 to 248 | NCc1cccnc1C1CCN(c2cc3c(cc2F)c(=O)c(C(=O)O)cn3C2CC2)C1 (stereo not drawn)
6 | 137 | CC(=O)OC1CSC(Oc2ccc(-c3ccoc3)cc2F)C(OC(C)=O)C1OC(C)=O (stereo not drawn)
7 | 228 to 231 | Nc1ccc(C#Cc2cnn3c(C4CC4)cc(-c4ccc(C(F)(F)F)cc4)nc23)cn1
8 | 159 to 161 | C=CCNC(=O)c1cnc(SC)nc1NC(C)C
9 | 40 to 42 | CN1CCC[C@H](OCc2cc(C(F)(F)F)cc(C(F)(F)F)c2)[C@@H]1c1ccccc1
10 | 113 | CCOC(=O)NN=C(C)c1ccccn1
11 | 164 to 165 | COc1ccc(N2CCN(C[C@H]3COc4ccc5nc(C)ccc5c4O3)CC2)cc1
12 | 164 to 166 | COC(=O)c1cc(-n2c(=O)c3c(n(C)c2=O)CCC3)ccc1Cl
13 | 121 to 122 | O=C1CCN(Cc2cccnc2)CC1C(c1ccccc1)c1ccccc1 (stereo not drawn)
14 | 300 | N=C(NO)c1ccc(N)nc1
15 | 137 to 139 | Cn1ncc2c1-c1c(Oc3ccc(O)cc3)sc(C(N)=O)c1CC2
16 | 144 to 145 | OC1c2cc(OCc3nc4cc(F)ccc4s3)ccc2OCC1Oc1ccccc1 (stereo not drawn)
17 | 64 to 65 | Cc1ccc(S(=O)(=O)OCC2CCCc3scnc32)cc1 (stereo not drawn)
18 | > 310 | Nc1ccc(CCc2n[nH]c3c2c(=O)n(-c2ccccc2)c2ncccc32)cc1
19 | 155 to 156 | O=C1C(CC23CC(c4ccccc42)c2ccccc23)OCCN1Cc1ccccc1 (stereo not drawn)
20 | 64 to 65 | CN1C(=O)c2cccnc2N(CC(=O)OC(C)(C)C)c2ccccc21
21 | > 200 | CSc1nc(N)c(C#N)c(N2CCc3ccccc3CC2)n1
22 | > 310 | Nc1nc2ncn([C@H]3C=C[C@@H](O)C3)c2c(=O)[nH]1 (racemic)

Row | melting point [°C] | Compound
23 | 102 to 105 | Nc1nc2c(s1)CCN(CCCCCc1ccccc1)CC2
24 | 182 to 185 | CC(=O)N1CCN(c2cc3nc(C(C)(C)C)sc3cc2N)CC1
25 | 95 to 98 | c1cnc(-c2noc(C3CC3)n2)cn1
26 | 178 to 179 | CC(C)OC1CCC(=O)N1S(=O)(=O)C=Cc1ccc([N+](=O)[O-])cc1 (stereo not drawn)
27 | 170 | O=CN[C@H]1CC[C@H](CCN2CCN(c3nccc4c3CCO4)CC2)CC1
28 | 292 to 294 | O=C(O)c1ccc(-c2cc3ccccc3o2)cc1
29 | 69 to 73 | Cc1cc(NC(=O)c2cccc(CSc3cnccn3)c2)ccc1C(C)C
30 | 135 to 160 | CCOCc1nc2c(N)nc3ccccc3c2n1CC1(N(C(N)=O)C(C)C)CCCCC1
31 | 65 to 66.4 | O=C(CCl)NC[C@@H]1CN2C(=O)C[C@H]2O1 (racemic)
32 | 190 to 193 | CCCCn1c(C)cc(=O)c(C(=O)Nc2ccccc2)c1-c1ccccc1
33 | > 300 | CN1CCN(c2cc(-c3cnc4c(c3)N(C(=O)Cc3cc(F)ccc3F)CCN4)ccn2)CC1
34 | 72 to 73 | CC(C)(C)OC(=O)N1CCC(=Cc2ccc3ccccc3n2)CC1
35 | 271 to 272 | O=C(C#Cc1ccc(C(=O)O)cc1)Nc1ccccc1
36 | 88 to 90 | COc1ccc(C(Cc2ccccc2)C2=C(C)N=NC2=O)cc1OC1CCCC1 (stereo not drawn)
37 | 143 to 144 | O=[N+]([O-])c1cccnc1Nc1ccc(O)cc1
38 | 161 to 165 | S=C(N1CCC(c2ccccc2)(c2ccccc2)CC1)n1ccnc1
39 | 117 to 118 | Nc1c(OCC(O)CN2CCC(COc3ccccc3)CC2)cccc1[N+](=O)[O-] (stereo not drawn)
40 | 128 to 131 | COC(=O)c1ccc(-c2ccc(OC)c(OC3CCCC3)c2)cc1
41 | 135 to 136 | Nc1noc(-c2ccc(CN3CCCCCC3)s2)n1
42 | 256 to 258 | CN(C(=O)c1ccc2c(c1)nc(NC(=O)c1cccs1)n2CCCC(=O)O)C1CCCCC1
43 | 161 to 162 | O=C(Nc1ccc(CCc2nnn[nH]2)cc1)C(F)(F)C(F)(F)C(F)(F)F
44 | 156 to 163 | C=CCn1cc(C(=O)OCC)c(=O)c2cc(C(=O)OC)ccc21

More lines, now with the values behind:

Row | Compound | melting point [°C]
45 | O=C1CC(c2cccs2)=Nc2ccc(I)cc2N1 | > 260
46 | CCCC(=O)Nc1ccc(-c2cc(C(C)(C)C)c(O)c(C(C)(C)C)c2)cc1 | 180 to 181
47 | N#Cc1ccc(OCc2ccccc2)cc1OCc1ccccc1 | 100
48 | CSc1ccc(Oc2ccc(N)cc2)c(C)c1 | 162
49 | COC(CCCCC(N)=O)OC | 57
50 | COC(=O)c1cc(-c2ccc(Cl)cc2)n(Cc2ccc(Cl)cc2Cl)n1 | 105
51 | O=C(O)C(=O)c1ccc(OCCOc2ccccc2)cc1 | 102 to 103
52 | COCc1cnc2c(NC(=O)c3c(Cl)cccc3Cl)cccc2c1Cn1ccnc1 | 190 to 191
53 | O=C(Nc1cccc2c1C(=O)c1c-2n[nH]c1C1CCN(C(=O)Oc2ccccc2)CC1)NN1CCOCC1 | 250 to 252
54 | C#CCN(C)Cc1nc2ccc(OC(F)(F)F)cc2s1 | 117 to 120
55 | COC(=O)c1ccc(C(O)c2ccc(C(=O)OC)cc2)cc1 | 116
56 | COc1ccc2nc(-c3ccc([N+](=O)[O-])cc3)sc2c1 | 216 to 217
57 | O=C(O)CCc1cn(Cc2ccc(OCc3ccc(-c4ccccc4)nc3)cc2)cc1-c1ccccc1 | 185 to 186
58 | Cn1cncc1C(N)(c1ccoc1)c1ccc2c(c1)c(-c1cccc(Cl)c1)cc(=O)n2C (stereo not drawn) | 197
59 | CC(C)=CCn1c(-c2c(F)cccc2F)nc2c(C)cccc21 | 78 to 79
60 | CNC(=O)c1cccc(C(C(N)=O)c2c[nH]c3ccccc23)c1 (stereo not drawn) | 168 to 169
61 | O=C(Oc1cc([N+](=O)[O-])c(F)cc1Cl)Oc1cc([N+](=O)[O-])c(F)cc1Cl | 165 to 166
62 | CCOC(=O)C(C)(C)Oc1ccc(CNC(=O)c2sc(-c3ccc(C(C)C)cc3)nc2C)cc1C | 129 to 131
63 | O=S(=O)(Nc1cccc(Oc2cccc3cccnc23)c1)c1ccc(Cl)cc1 | 190 to 191
64 | ClCc1cc(-c2ccccc2)no1 | 69 to 70

Row | Compound | melting point [°C]
65 | Nc1nc2c(ncn2COCCCO)c(=O)[nH]1 | 223
66 | CCOC(=O)Cc1cccc(N[C@@H](CCC(N)=O)C(=O)O)c1 | 176
67 | N#CCn1nnc(NC(=O)C(c2ccccc2)c2ccccc2)n1 | 173 to 174
68 | CCCCCCCCSc1ccc(CC(CO)(CO)NC(C)=O)cc1 | 76 to 78
69 | Nc1c(Cl)cccc1SSc1cccc(Cl)c1N | 87 to 88
70 | N#Cc1cc(-c2cnccn2)c[nH]c1=O | 250
71 | COc1cc(OCCN(C)C)ccc1/C=C/c1cc(/C=C/c2ccc3cc[nH]c3c2)[nH]n1 | 109 to 112
72 | COc1ccc2c(c1)C13CCN(C)C(C2)C1(OC)CCC(=O)C3 (stereo not drawn) | 152 to 156
73 | NC(=O)NCCCC(NC(=O)OCc1ccccc1)C(=O)OCc1ccc([N+](=O)[O-])cc1 (stereo not drawn) | 144 to 146
74 | CCOC(=O)Nc1cccc(CBr)c1C(=O)OCC | 70 to 72
75 | CC(=O)NNc1ccc(N)cc1 | 130 to 140
76 | CC(Cl)C(=O)NOCc1ccccc1 (stereo not drawn) | 70.1 to 72.8
77 | c1ccc(COc2ccc3[nH]cc(Cc4cccnc4)c3c2)cc1 | 148
78 | OCc1cc(Cl)c(N=C2NCCN2)c(Cl)c1 | 208 to 210
79 | Nc1ccc(N2C(=O)c3cccc([N+](=O)[O-])c3C2=O)cc1 | 177
80 | CCC(N)C(=O)Nc1c(C)cccc1C (stereo not drawn) | 48 to 49
81 | COc1ccc2c(c1)-c1ccccc1C=CC(O)=C2 | 97 to 99
82 | CCOC(=O)c1c(C)cc2nc(C)n(-c3ccccc3C)c(=O)c2c1C | 129 to 130
83 | Nc1cccc(C(F)(F)F)c1CCl | 155 to 161
84 | CC(C)OCCNC(=O)c1cccc(-c2cccc3cc(Cc4cc(F)cc(Cl)c4)sc23)c1 | 84 to 85

Row | Compound | melting point [°C]
85 | O=C(O)CC(Br)C(Br)c1ccc(-c2ccccc2)cc1 (stereo not drawn) | 200 to 203
86 | CCCCCCCCCCCCCCOC(=O)CCC1(CO)CCC(=O)O1 (stereo not drawn) | 59
87 | CCOC(=O)c1ccc(-c2ccc(OCCO)c(-c3ccc(N(CC)CC)c(C(C)(C)C)c3)c2)cc1 | 127
88 | CCn1cc(C(=O)O)c(=O)c2cc(F)c(N3CCNCC3)c(F)c21 | 234 to 236
89 | Cc1cnc(-c2ccc(Br)cc2)nc1-c1ccc(Br)cc1 | 136 to 137
90 | CCOC(=O)c1cc(OC)c(OCc2nc(C)c(C)nc2C)c(OC)c1 | 122 to 123
91 | CC(CN1C(=O)c2ccccc2C1=O)C(=NO)n1nc(C(C)(C)C)cc1N (stereo not drawn) | 198 to 199
92 | CCCCCCC(CC(=O)Nc1cc(C(N)=O)ccc1C(C)(C)C)c1ccc(OC)cc1OC (stereo not drawn) | 152 to 153
93 | N#CC12CC3CC(CC(Cl)(C3)C1)C2 | 156 to 157
94 | NS(=O)(=O)c1nc2ccc(OCC(O)CO)cc2s1 (stereo not drawn) | 183 to 185
95 | CCCCC(C)(CC)C(O)C(Oc1ccc(-c2ccccc2)cc1)n1cncn1 (stereo not drawn) | 120 to 122
96 | COC(=O)c1sc(-c2ccccc2)c(O)c1O | 143 to 144
97 | COc1ccc(CN(C)CC(=O)Nc2ccc([N+](=O)[O-])cc2)cc1OC | 120
98 | COc1ccc(-c2n[nH]c3c2C(O)c2ccccc2-3)cc1OC (stereo not drawn) | 197 to 199
99 | Cc1nc(-c2ccccc2)oc1C(N)=O | 187 to 190
100 | COc1cc(OC)nc(Oc2cccc3cc(C)oc(=O)c23)n1 | 188 to 190
101 | O=C(Nc1cc(-c2ccnc3c(C(=O)c4cccs4)cnn23)ccc1F)c1ccccc1F | 214 to 216
102 | CC/C(=C(\c1ccc(/C=C/C(=O)O)cc1)c1ccc(OC(=O)CCC(F)(F)F)cc1)c1ccccc1 | 162 to 163
103 | CCOC(=O)c1cccc2nc3cc(C(=O)c4ccccc4)ccc3nc12 | 115 to 116
